Source: PubChem BioAssay (NCI)
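Each compound was tested at five concentrations against cells in 96-well plates for 48 hours. GI50 marks 50% less growth. TGI denotes the concentration required for complete inhibition of growth.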

Assays:
Experiment in all cases: DTP human tumour cell line panel, 48 h
EKVX NSCLC = system: EKVX NSCLC
COLO 205 colon = system: COLO 205 colon
U251 CNS = system: U251 CNS
SF-539 CNS = system: SF-539 CNS
HL-60(TB) leukemia = system: HL-60(TB) leukemia
NCI-H23 lung = system: NCI-H23 lung
IGROV1 ovarian = system: IGROV1 ovarian
HS 578T breast = system: HS 578T breast
HCC-2998 colon = system: HCC-2998 colon
HCT-116 colon = system: HCT-116 colon

| SMILES | TGI (EKVX NSCLC) | TGI (COLO 205 colon) | TGI (U251 CNS) | TGI (SF-539 CNS) | TGI (HL-60(TB) leukemia) | TGI (NCI-H23 lung) | TGI (IGROV1 ovarian) | TGI (HS 578T breast) | GI50 (HCC-2998 colon) | TGI (HCC-2998 colon) | TGI (HCT-116 colon) | GI50 (IGROV1 ovarian) | GI50 (COLO 205 colon) | GI50 (SF-539 CNS) | GI50 (HCT-116 colon) | GI50 (NCI-H23 lung) | GI50 (EKVX NSCLC) | GI50 (U251 CNS) | GI50 (HL-60(TB) leukemia) | GI50 (HS 578T breast) |
| --- | --- | --- | --- | --- | --- | --- | --- | --- | --- | --- | --- | --- | --- | --- | --- | --- | --- | --- | --- | --- |
| Clc1cc(Cl)cc(C2SCc3nc4ccccc4n32)c1 (centres undefined) | 70.8 µM | 33.9 µM | 34.2 µM | 23.9 µM | 53.4 µM | 45.4 µM | – | – | – | – | – | – | – | – | – | – | – | – | – | – |
| N#Cc1c(N)n(C2OC(CO)C(O)C2O)c2ncnc(N)c12 (centres undefined) | > 100 µM | 0.191 µM | > 78.2 µM | 0.417 µM | – | 0.206 µM | > 100 µM | 2.16 µM | 0.145 µM | 0.509 µM | > 7.59 µM | – | – | – | – | – | – | – | – | – |
| Clc1cc2nc[nH]c2cc1Cl | > 100 µM | > 100 µM | > 100 µM | > 100 µM | > 100 µM | > 100 µM | > 100 µM | – | – | > 100 µM | – | – | – | – | – | – | – | – | – | – |
| CCOC(=O)C1Nc2ccc([N+](=O)[O-])cc2[C@H]2OCC[C@@H]12 (some centres undefined) | > 100 µM | > 100 µM | > 100 µM | > 100 µM | > 100 µM | > 100 µM | > 100 µM | – | – | > 100 µM | > 100 µM | – | – | – | – | – | – | – | – | – |
| CCOC(=O)NC(=O)c1cn(CC(=O)NCC(=O)NCC(=O)N2CCN(CCn3c(C)nc(C(N)=O)c3N)CC2)c(=O)[nH]c1=O | – | > 100 µM | > 100 µM | > 100 µM | > 100 µM | > 100 µM | > 100 µM | – | – | > 100 µM | > 100 µM | – | – | – | – | – | – | – | – | – |
| O=C1C2c3[nH]c4ccccc4c3C3CCC(c4ccccc4)CC3C2C(=O)N1c1ccccc1 (centres undefined) | > 100 µM | > 100 µM | > 100 µM | > 100 µM | 71.1 µM | > 100 µM | > 100 µM | – | – | > 100 µM | – | – | – | – | – | – | – | – | – | – |
| CN(C)C(=O)C(NCCO)c1ccccc1 (centres undefined) | > 100 µM | > 100 µM | > 100 µM | > 100 µM | – | > 100 µM | > 100 µM | > 100 µM | – | > 100 µM | > 100 µM | – | – | – | – | – | – | – | – | – |
| O=C(NCCN1CCOCC1)Nc1nc2ccc(Sc3nnc4ccc(-c5ccc(F)cc5)nn34)cc2s1 | – | > 33.3 µM | – | > 100 µM | – | > 100 µM | > 100 µM | – | 17.3 µM | > 100 µM | > 100 µM | > 100 µM | 4.53 µM | 2.94 µM | 6.88 µM | > 100 µM | – | – | – | – |
| CCCCN1C(=O)C2c3[nH]c4ccccc4c3C3CCCCC3C2C1=O (mixture of isomers) | 66.8 µM | > 100 µM | 36.3 µM | 28.6 µM | 29.1 µM | 78.1 µM | 75.9 µM | – | – | 62.4 µM | 23.6 µM | – | – | – | – | – | – | – | – | – |
| OCC(O)C(O)C(O)c1nn[nH]n1 (centres undefined) | > 100 µM | > 100 µM | > 100 µM | > 100 µM | > 100 µM | > 100 µM | > 100 µM | – | – | – | > 100 µM | – | – | – | – | – | – | – | – | – |
| C[C@]12CC/C(=N\O)C[C@@H]1CC[C@@H]1[C@@H]2CC[C@]2(C)/C(=N/O)CC[C@@H]12 | > 100 µM | > 100 µM | > 100 µM | > 100 µM | > 100 µM | 80.2 µM | 62.6 µM | – | – | – | 58.5 µM | 17.4 µM | 35.8 µM | 37.9 µM | 23.3 µM | 45.6 µM | 44.6 µM | 35.2 µM | 23.2 µM | – |
| C[C@]12CC[C@H](OC(=O)Cc3ccc(N(CCCl)CCCl)cc3)CC1CC[C@@H]1C2CC[C@]2(C)NC(=O)CCC12 (some centres undefined) | – | 18.4 µM | 29.3 µM | 12.5 µM | 6.06 µM | 35.4 µM | 30.5 µM | – | – | 34.8 µM | 18.5 µM | – | – | – | – | – | – | – | – | – |
| Cc1ccc2oc(=O)cc(CC(=O)O)c2c1 | > 100 µM | > 100 µM | > 100 µM | > 100 µM | > 100 µM | > 100 µM | > 100 µM | – | – | > 100 µM | > 100 µM | – | – | – | – | – | – | – | – | – |
| N=C(N)c1ccc(CS(=O)(=O)F)cc1 | > 100 µM | > 100 µM | > 100 µM | > 100 µM | – | > 100 µM | > 100 µM | > 100 µM | > 100 µM | > 100 µM | > 100 µM | > 100 µM | > 100 µM | > 100 µM | > 100 µM | > 100 µM | > 100 µM | > 100 µM | – | > 100 µM |
| [O-]c1ccccc1[C-]=Nc1ccccc1O.[O-]c1ccccc1[C-]=Nc1ccccc1O.[O]=[U]=[O] | 62.4 µM | 51.6 µM | 33.6 µM | – | 7.47 µM | 76.5 µM | 71 µM | – | – | – | – | 21.8 µM | 19 µM | – | – | 11.3 µM | 24 µM | 11.6 µM | 1.76 µM | – |
| CC(C)(C)c1cc(O)c2c(c1O)C(=O)CCC2 | > 100 µM | > 100 µM | > 100 µM | > 100 µM | 43.9 µM | > 100 µM | > 100 µM | – | – | > 100 µM | > 100 µM | – | – | – | – | – | – | – | – | – |
| CCCCCCN(CCCCCC)C1=CC(=O)C(=O)c2ccccc21 | 27.7 µM | 31.4 µM | 29.3 µM | 30.9 µM | 34.6 µM | 27.8 µM | 31.1 µM | – | – | 35.6 µM | 32.9 µM | – | – | – | – | – | – | – | – | – |
| CN1CCN2c3ccccc3CC(C#N)(C#N)C2C1 (centres undefined) | > 100 µM | > 100 µM | > 100 µM | > 100 µM | > 100 µM | > 100 µM | > 100 µM | – | – | > 100 µM | > 100 µM | – | – | – | – | – | – | – | – | – |
| CC[C@@]1(O)C(=O)OCc2c1cc1n(c2=O)Cc2cc3c([N+](=O)[O-])c(O)ccc3nc2-1 | > 100 µM | 27.3 µM | 1.22 µM | 0.357 µM | 1.3 µM | 0.636 µM | 17.3 µM | – | 2.02 µM | 13.1 µM | 7.11 µM | 1.04 µM | 3.56 µM | 0.0449 µM | 0.431 µM | 0.0821 µM | 13.3 µM | 0.0405 µM | 0.13 µM | – |
| CN1C(=O)C(C)(C)NS1(=O)=O | > 100 µM | > 100 µM | > 100 µM | > 100 µM | > 100 µM | > 100 µM | > 100 µM | – | – | > 100 µM | > 100 µM | – | – | – | – | – | – | – | – | – |
